From US20240317735A1, “HYDROISOQUINOLINE OR HYDRONAPHTHYRIDINE COMPOUNDS FOR THE TREATMENT OF AUTOIMMUNE DISEASE” (Hoffmann-La Roche Inc., priority 2020, published 2024) come the findings set out here.

pIC50: −log10 of the molar value.

One data set addresses T1, human TLR8 (Homo sapiens, UniProt Q9NR97).
T1 construct: host or cells: HEK293 (HEK-Blue hTLR8)
T1 sequence (Q9NR97 27-1041): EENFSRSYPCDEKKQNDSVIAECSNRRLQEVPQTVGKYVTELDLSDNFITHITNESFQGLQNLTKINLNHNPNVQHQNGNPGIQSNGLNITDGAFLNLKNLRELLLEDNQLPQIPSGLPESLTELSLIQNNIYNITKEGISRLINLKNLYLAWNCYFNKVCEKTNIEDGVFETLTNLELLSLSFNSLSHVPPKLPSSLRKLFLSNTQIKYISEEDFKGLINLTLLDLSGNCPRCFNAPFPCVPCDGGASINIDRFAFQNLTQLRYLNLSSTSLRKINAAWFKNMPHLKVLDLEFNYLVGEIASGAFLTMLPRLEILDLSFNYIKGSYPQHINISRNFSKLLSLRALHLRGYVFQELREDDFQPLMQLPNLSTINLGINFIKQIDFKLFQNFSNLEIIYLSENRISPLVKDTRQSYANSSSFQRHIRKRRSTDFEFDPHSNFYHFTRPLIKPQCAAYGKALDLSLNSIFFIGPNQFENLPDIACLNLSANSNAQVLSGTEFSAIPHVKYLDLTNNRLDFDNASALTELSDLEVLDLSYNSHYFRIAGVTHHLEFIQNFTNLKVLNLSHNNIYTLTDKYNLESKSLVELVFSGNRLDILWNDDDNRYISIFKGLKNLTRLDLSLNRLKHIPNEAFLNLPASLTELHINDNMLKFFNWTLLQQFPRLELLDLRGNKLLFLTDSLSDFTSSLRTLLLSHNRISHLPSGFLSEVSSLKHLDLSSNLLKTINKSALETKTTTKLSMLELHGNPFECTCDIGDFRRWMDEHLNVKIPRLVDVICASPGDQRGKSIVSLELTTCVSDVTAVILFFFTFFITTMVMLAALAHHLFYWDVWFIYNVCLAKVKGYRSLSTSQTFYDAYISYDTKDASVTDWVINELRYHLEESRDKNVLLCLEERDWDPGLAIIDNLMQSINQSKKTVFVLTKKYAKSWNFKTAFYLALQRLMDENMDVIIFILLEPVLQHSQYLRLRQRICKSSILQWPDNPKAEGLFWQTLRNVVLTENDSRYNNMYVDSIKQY
Briefly: HEK293-Blue-hTLR-8 cells assay (SEAP reporter, R848 stimulation). Format: cell-based. The following applies: HEK293-Blue-hTLR8 cells, R848, 20 hrs; read-out: HEK/hTLR8 IC50. The procedure, abridged: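 HEK293-Blue hTLR8 cells with NF-κB/AP-1-driven SEAP reporter incubated 20 h at 37 °C with serially diluted compound (1% DMSO) and R848 stimulus (60 μM stock). Supernatant SEAP measured with QUANTI-Blue (2 h, 37 °C) by absorbance at 620–655 nm; antagonism read as reduced reporter signal.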

In another data set the target is T2, hERG channel (Homo sapiens, UniProt Q12809).
T2 construct: expressed in transfected cells; host or cells: CHO (CHOhERG)
T2 sequence (Q12809 whole entry): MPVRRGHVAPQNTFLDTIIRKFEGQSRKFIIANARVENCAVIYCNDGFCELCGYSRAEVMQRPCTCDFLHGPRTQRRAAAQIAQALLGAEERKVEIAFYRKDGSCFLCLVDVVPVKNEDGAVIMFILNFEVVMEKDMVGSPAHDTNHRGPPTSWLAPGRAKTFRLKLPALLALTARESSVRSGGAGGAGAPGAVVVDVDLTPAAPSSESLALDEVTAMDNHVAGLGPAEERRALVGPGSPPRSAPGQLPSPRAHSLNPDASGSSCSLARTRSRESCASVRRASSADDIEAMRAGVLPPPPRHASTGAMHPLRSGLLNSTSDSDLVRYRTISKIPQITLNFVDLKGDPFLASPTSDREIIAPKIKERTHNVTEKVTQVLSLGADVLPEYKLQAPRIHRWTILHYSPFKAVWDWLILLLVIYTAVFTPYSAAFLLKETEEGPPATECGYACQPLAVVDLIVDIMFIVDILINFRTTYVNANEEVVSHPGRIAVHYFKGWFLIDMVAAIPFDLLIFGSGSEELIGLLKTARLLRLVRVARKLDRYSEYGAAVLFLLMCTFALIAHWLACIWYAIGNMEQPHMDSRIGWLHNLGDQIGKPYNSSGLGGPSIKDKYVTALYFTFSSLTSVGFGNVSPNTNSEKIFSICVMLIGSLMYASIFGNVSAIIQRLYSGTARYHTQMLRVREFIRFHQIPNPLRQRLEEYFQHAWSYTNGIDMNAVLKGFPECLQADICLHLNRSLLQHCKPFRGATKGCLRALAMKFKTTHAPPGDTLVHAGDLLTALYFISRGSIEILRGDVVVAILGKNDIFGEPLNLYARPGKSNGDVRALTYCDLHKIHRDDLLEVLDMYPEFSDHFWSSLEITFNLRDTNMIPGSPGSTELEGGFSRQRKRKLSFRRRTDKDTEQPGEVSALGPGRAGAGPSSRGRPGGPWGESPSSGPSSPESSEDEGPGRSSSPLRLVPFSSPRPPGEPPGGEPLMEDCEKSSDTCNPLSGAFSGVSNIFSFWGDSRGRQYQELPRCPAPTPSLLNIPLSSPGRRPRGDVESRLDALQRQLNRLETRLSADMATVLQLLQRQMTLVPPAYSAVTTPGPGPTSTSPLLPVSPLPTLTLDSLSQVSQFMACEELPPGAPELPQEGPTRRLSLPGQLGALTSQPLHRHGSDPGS
Briefly: hERG channel inhibition assay (patch-clamp, CHOhERG cells). Format: cell-based. The following applies: for pIC50 / IC20: CHOhERG cells, whole-cell patch-clamp; for IC20: human, CHO cells stably expressing hERG (CHOhERG); for hERG IC20/TLR7 IC50 / hERG IC20/TLR8 IC50 / hERG IC20/TLR9 IC50: safety ratio; for hERG IC20/TLR7 IC50: hERG IC20 over HEK/hTLR7 IC50; for hERG IC20/TLR8 IC50: hERG IC20 over HEK/hTLR8 IC50; for hERG IC20/TLR9 IC50: hERG IC20 over HEK/hTLR9 IC50. Here is the method: The hERG K^+ channels were cloned in humans and stably expressed in a CHO (Chinese hamster ovary) cell line. CHOhERG cells were used for patch-clamp (voltage-clamp, whole-cell) experiments. Cells were stimulated by a voltage pattern to activate hERG channels and conduct IKhERG currents (rapid delayed outward rectifier potassium current of the hERG channel). After the cells were stabilized for a few minutes, the amplitude and kinetics of IKhERG were recorded at a stimulation frequency of 0.1 Hz (6 bpm). Thereafter, the test compound was added to the preparation at increasing concentrations. For each concentration, an attempt was made to reach a steady-state effect, usually, this was achieved within 3-10 min at which time the next highest concentration was applied. The amplitude and kinetics of IKhERG are recorded in each concentration of the drug which were compared to the control values (taken as 100%). (references: Redfern W S, Carlsson L, Davis A S, Lynch W G, MacKenzie I, Palethorpe S, Siegl P K, Strang I, Sullivan A T, Wallis R, Camm A J, Hammond T G. 2003; Relationships between preclinical cardiac electrophysiology, clinical QT interval prolongation and torsade de pointes for a broad range of drugs: evidence for a provisional safety margin in drug development. Cardiovasc. Res. 58:32-45, Sanguinetti MC, Tristani-Firouzi M. 2006; hERG potassium channels and cardiac arrhythmia. Nature 440:463-469, Webster R, Leishman D, Walker D. 2002; Towards a drug concentration effect relationship for QT prolongation and torsades de pointes. Curr. Opin. Drug Discov. Devel. 5:116-26).

Regarding `Cn1ncc2c(N3CCc4cc(N5CCNCC5)ccc4C3)ccnc21` [Example 3, 2-(1-methylpyrazolo[3,4-b]pyridin-4-yl)-6-piperazin-1-yl-3,4-dihydro-1H-isoquinoline], the pIC50 on human TLR8 is 7.25. In addition, on hERG channel, the pIC50 is less than 4.70, the IC20 was greater than 10 µM, the “hERG IC20/TLR7 IC50” value is listed as greater than 526.3 and the “hERG IC20/TLR8 IC50” value is greater than 178.6. Also, the “hERG IC20/TLR9 IC50” value at hERG channel is greater than 54.1.

Regarding `C[C@H]1CN(c2ccnc3c2cnn3C)Cc2ccc(N3CC4(CCNCC4)CC3=O)cc21` [Example 16, 2-[(4R)-4-methyl-2-(1-methylpyrazolo[3,4-b]pyridin-4-yl)-3,4-dihydro-1H-isoquinolin-6-yl]-2,8-diazaspiro[4.5]decan-3-one], the pIC50 on human TLR8 is 8.40. On hERG channel, the pIC50 is less than 4.70, the IC20 is greater than 10 µM, the “hERG IC20/TLR7 IC50” value was greater than 2000.0 and the “hERG IC20/TLR8 IC50” value is greater than 2500.0. At hERG channel, the “hERG IC20/TLR9 IC50” value was greater than 158.7.

In the case of `C[C@H]1CN(c2ccnc3c2cnn3C)Cc2ccc(OC[C@H]3CNCCN3)cc21` [Example 18, (4R)-4-methyl-2-(1-methylpyrazolo[3,4-b]pyridin-4-yl)-6-[[(2R)-piperazin-2-yl]methoxy]-3,4-dihydro-1H-isoquinoline], the pIC50 on human TLR8 was 8.40. Further, at hERG channel, the pIC50 was less than 4.70, the concentration for an effect of 20% (IC20) is greater than 10 µM, the “hERG IC20/TLR7 IC50” value is listed as greater than 1250.0 and the “hERG IC20/TLR8 IC50” value is listed as greater than 2500.0. Besides, at hERG channel, the “hERG IC20/TLR9 IC50” value is listed as greater than 90.1.

As to `C[C@H]1CN(c2ccnc3c2cnn3C)Cc2ccc(OC[C@@H]3CNCCN3)cc21` [Example 19, (4R)-4-methyl-2-(1-methylpyrazolo[3,4-b]pyridin-4-yl)-6-[[(2S)-piperazin-2-yl]methoxy]-3,4-dihydro-1H-isoquinoline], at human TLR8, the pIC50 is 8.40. Moreover, at hERG channel, the pIC50 is less than 4.70, the 20% effect concentration (IC20) is 6.3 µM, the “hERG IC20/TLR7 IC50” value was determined as 787.5 and the “hERG IC20/TLR8 IC50” value is given as 1575.0. The “hERG IC20/TLR9 IC50” value on hERG channel came out at 62.4.

On to `CO[C@@H]1CN(c2ccc3c(c2)[C@@H](C)CN(c2ccnc4c2cnn4C)C3)C[C@H]1N` [Example 20, (3R,4R)-4-methoxy-1-[(4R)-4-methyl-2-(1-methylpyrazolo[3,4-b]pyridin-4-yl)-3,4-dihydro-1H-isoquinolin-6-yl]pyrrolidin-3-amine], for which the pIC50 on human TLR8 is 7.77. Moreover, on hERG channel, the pIC50 is less than 4.70, the IC20 worked out at 6.2 µM, the “hERG IC20/TLR7 IC50” value turned out to be 2066.7 and the “hERG IC20/TLR8 IC50” value came to 364.7. For the same compound, the “hERG IC20/TLR9 IC50” value at hERG channel is given as 25.9.

Consider `C[C@H]1CN(c2ccnc3c2cnn3C)Cc2ccc(N3CC4(CNCCO4)C3)cc21` [Example 21, 2-[(4R)-4-methyl-2-(1-methylpyrazolo[3,4-b]pyridin-4-yl)-3,4-dihydro-1H-isoquinolin-6-yl]-5-oxa-2,8-diazaspiro[3.5]nonane], for which, at human TLR8, the pIC50 is 7.85. Also, at hERG channel, the pIC50 is less than 4.70, the concentration for an effect of 20% (IC20) is greater than 10 µM, the “hERG IC20/TLR7 IC50” value was greater than 1428.6 and the “hERG IC20/TLR8 IC50” value is on record as greater than 714.3. Further, the “hERG IC20/TLR9 IC50” value on hERG channel was greater than 26.9.

As to `C[C@H]1CN(c2ccnc3c2cnn3C)Cc2ccc(N3C[C@@H]4CNCCN4C3=O)cc21` [Example 25, (8aS)-2-[(4R)-4-methyl-2-(1-methylpyrazolo[3,4-b]pyridin-4-yl)-3,4-dihydro-1H-isoquinolin-6-yl]-1,5,6,7,8,8a-hexahydroimidazo[1,5-a]pyrazin-3-one], at human TLR8, the pIC50 was greater than 9.52. For the same compound, at hERG channel, the pIC50 was less than 4.70, the IC20 is greater than 10 µM, the “hERG IC20/TLR7 IC50” value is recorded as greater than 666.7 and the “hERG IC20/TLR8 IC50” value was greater than 33333.3. The “hERG IC20/TLR9 IC50” value at hERG channel is greater than 34.4.

Take `Cc1cc(N2Cc3ccc(OC[C@H]4CNCCN4)cc3[C@@H](C)C2)c2cnn(C)c2n1` [Example 30, (4R)-2-(1,6-dimethylpyrazolo[3,4-b]pyridin-4-yl)-4-methyl-6-[[(2R)-piperazin-2-yl]methoxy]-3,4-dihydro-1H-isoquinoline]: at human TLR8, the pIC50 is 8.70. Moreover, at hERG channel, the pIC50 was less than 4.70, the IC20 amounted to 6.5 µM, the “hERG IC20/TLR7 IC50” value is reported as 175.7 and the “hERG IC20/TLR8 IC50” value came out at 3250.0. Also, the “hERG IC20/TLR9 IC50” value on hERG channel is 73.9.

With `Cc1cc(N2Cc3ccc(OC[C@@H]4CNCCN4)cc3[C@@H](C)C2)c2cnn(C)c2n1` [Example 31, (4R)-2-(1,6-dimethylpyrazolo[3,4-b]pyridin-4-yl)-4-methyl-6-[[(2S)-piperazin-2-yl]methoxy]-3,4-dihydro-1H-isoquinoline], the pIC50 on human TLR8 was 8.70. At hERG channel, the pIC50 was less than 4.70, it took 8.5 µM to reach the 20% level (IC20), the “hERG IC20/TLR7 IC50” value was 354.2 and the “hERG IC20/TLR8 IC50” value came out at 4250.0. At hERG channel, the “hERG IC20/TLR9 IC50” value is given as 81.0.

As for `C[C@H]1CN(c2ccnc3c2cnn3C)Cc2ccc(N3CC4(CNC4)CC3=O)cc21` [Example 34, 6-[(4R)-4-methyl-2-(1-methylpyrazolo[3,4-b]pyridin-4-yl)-3,4-dihydro-1H-isoquinolin-6-yl]-2,6-diazaspiro[3.4]octan-7-one], the pIC50 on human TLR8 is 7.59. Besides, at hERG channel, the pIC50 is less than 4.70, the IC20 is greater than 10 µM, the “hERG IC20/TLR7 IC50” value was greater than 384.6 and the “hERG IC20/TLR8 IC50” value is greater than 384.6. Also, the “hERG IC20/TLR9 IC50” value at hERG channel is greater than 50.5.

Turning to `C[C@H]1CN(c2ccnc3c2cnn3C)Cc2ccc(OCCN3CCNCC3)cc21` [Example 40, (4R)-4-methyl-2-(1-methylpyrazolo[3,4-b]pyridin-4-yl)-6-(2-piperazin-1-ylethoxy)-3,4-dihydro-1H-isoquinoline], the pIC50 at human TLR8 is 8.15. In addition, at hERG channel, the pIC50 is less than 4.70, the IC20 is greater than 10 µM, the “hERG IC20/TLR7 IC50” value is greater than 1250.0 and the “hERG IC20/TLR8 IC50” value is given as greater than 1428.6. The “hERG IC20/TLR9 IC50” value at hERG channel is greater than 30.7.

With `C[C@H]1CN(c2ccnc3c2cnn3C)Cc2ccc(OC3CN(C4CCNCC4)C3)cc21` [Example 41, (4R)-4-methyl-2-(1-methylpyrazolo[3,4-b]pyridin-4-yl)-6-[1-(4-piperidyl)azetidin-3-yl]oxy-3,4-dihydro-1H-isoquinoline], the pIC50 at human TLR8 was 8.10. Besides, at hERG channel, the pIC50 was less than 4.70, it took 5.1 µM to reach the 20% level (IC20), the “hERG IC20/TLR7 IC50” value is 728.6 and the “hERG IC20/TLR8 IC50” value stood at 637.5. Further, the “hERG IC20/TLR9 IC50” value at hERG channel stood at 108.5.
